Data set [1] has as its system Plasmodium falciparum. The data set can be described thus: Antimalarial activity against chloroquine-sensitive Plasmodium falciparum 3D7 infected in human erythrocyte after 48 h by SYBR-Green-1 assay. The class given is functional, organism-based. The note with it: 3D7, 48 h.
The subject of data set [2] is Plasmodium falciparum. The data set can be described thus: Resistance index, ratio of IC50 for Plasmodium falciparum 3D7 to IC50 for Plasmodium falciparum RKL9. The class given is functional.
Data set [3] concerns Plasmodium falciparum. Description: Antimalarial activity against chloroquine-resistant Plasmodium falciparum RKL9 infected in human erythrocyte after 48 h by SYBR-Green-1 assay. It counts as functional, organism-based. The note with it: RKL9, 48 h.
Data set [4] can be described thus: Therapeutic index, ratio of TC50 for human HeLa cells to IC50 for Plasmodium falciparum RKL9. The class given is cell-based. The following applies: read-out: TI.
Data set [5] in a line: Cytotoxicity against human HeLa cells after 24 to 48 hrs by MTT assay. The class given is cell-based. The following applies: read-out: TC50 (the source's name). In general terms: Tetrazolium assays rely on reduction of a dye to a coloured formazan, in cell work by metabolically active cells.

The structures appear in SMILES notation. In brackets after ≈: the same amount, converted by molar mass. Where only a bound is given, the exact number is not on record here.

As a reminder, the IC50 is the point on the concentration scale where inhibition reaches its midpoint. Lower therefore signals higher potency. A word on the IC80: it is the point of the concentration-response curve where the effect stands at 80%. With `Cc1cc(=O)oc2ccc(C(=O)/C=C/c3ccccc3Cl)c(O)c12`, the IC50 in data set [1] is 20 µg/mL (≈ 58.7 µM); in data set [3] it was 13.5 µg/mL (≈ 39.6 µM). For the same molecule, the IC80 in data set [1] is 25 µg/mL (≈ 73.4 µM). Moreover, the “Ratio IC50” value in data set [2] is 1.5.
For the molecule `COc1cc(OC)c(OC)cc1/C=C/C(=O)c1cc2ccccc2oc1=O`, the IC50 in data set [1] was over 100 µg/mL.
Turning to `COc1ccc(/C=C/C(=O)c2cc3ccccc3oc2=O)cc1OC`, in data set [1], the IC50 is 26.7 µg/mL (≈ 79.4 µM) and it took 100 µg/mL (≈ 297 µM) to reach the 80% level (IC80).
With `COc1ccc(OC)c(/C=C/C(=O)c2ccc3oc(=O)cc(C)c3c2O)c1`, in data set [1], the IC50 was over 100 µg/mL.
In data set [1], `COc1ccc(/C=C/C(=O)c2cc3ccccc3oc2=O)c(OC)c1OC` had an IC50 of 3.1 µg/mL (≈ 8.46 µM) and an 80% effect concentration (IC80) of 6.2 µg/mL (≈ 16.9 µM). The “Ratio IC50” value in data set [2] was 2.8. The selectivity ratio in data set [4] is 90.9. The molecule further registered a 50% inhibitory concentration (IC50) in data set [3] of 1.1 µg/mL (≈ 3 µM). Moreover, the CC50 in data set [5] is 100 µg/mL (≈ 273 µM).
As to `COc1ccc(C2CC(c3cc4ccccc4oc3=O)=NN2c2ccccc2)cc1OC` (stereo not given), the values for the IC50 in data set [1] and in data set [3] were 10 µg/mL (≈ 23.4 µM) and 7.6 µg/mL (≈ 17.8 µM), respectively. In data set [1], this molecule had an IC80 of 44 µg/mL (≈ 103 µM). Besides, the “Ratio IC50” value in data set [2] is 1.3. Besides, the selectivity ratio in data set [4] is over 13. In addition, in data set [5], the CC50 is over 100 µg/mL.
In data set [1], `COc1cccc(/C=C/C(=O)c2cc3ccccc3oc2=O)c1` yielded an IC50 of 11 µg/mL (≈ 35.9 µM) and an IC80 of 24 µg/mL (≈ 78.4 µM). In addition, the “Ratio IC50” value in data set [2] is on record as 2.2. Moreover, the selectivity ratio in data set [4] is over 20. The concentration for half-maximal inhibition (IC50) in data set [3] is 4.9 µg/mL (≈ 16 µM). In addition, the CC50 in data set [5] was over 100 µg/mL.
In the case of `COc1ccccc1/C=C/C(=O)c1cc2ccccc2oc1=O`, in data set [1], the IC50 is over 100 µg/mL.
Same read-out and setting: in the case of `COc1ccc(/C=C/C(=O)c2cc3ccccc3oc2=O)cc1` it was over 100 µg/mL.
In the case of `COc1ccc(C2CC(c3cc4ccccc4oc3=O)=NN2C(C)=O)cc1OC` (stereo not given), in data set [1], half-maximal inhibition (IC50) required 10 µg/mL (≈ 25.5 µM) and the IC80 is 14 µg/mL (≈ 35.7 µM). In data set [2], the “Ratio IC50” value worked out at 1.1. For the same molecule, the selectivity ratio in data set [4] was over 10. The IC50 in data set [3] amounted to 9 µg/mL (≈ 22.9 µM). For the same molecule, the CC50 in data set [5] was over 100 µg/mL.
For the molecule `COc1cc(/C=C/C(=O)c2cc3ccccc3oc2=O)cc(OC)c1OC`, in data set [1], the midpoint of inhibition, the IC50, lay at 3.1 µg/mL (≈ 8.46 µM) and the IC80 was 6 µg/mL (≈ 16.4 µM). In addition, the “Ratio IC50” value in data set [2] is given as 1.6. Further, the selectivity ratio in data set [4] was over 50. The molecule also yielded an IC50 in data set [3] of 1.9 µg/mL (≈ 5.19 µM). Also, in data set [5], the CC50 was over 100 µg/mL.
For `C[C@@H]1CC[C@H]2[C@@H](C)C(=O)O[C@@H]3O[C@@]4(C)CC[C@@H]1[C@]32OO4` [ARTEMISININ], the IC80 in data set [1] is 0.00846 µg/mL (≈ 0.03 µM). This molecule gave a 50% inhibitory concentration (IC50) in data set [3] of 0.00451 µg/mL (≈ 0.016 µM).
Regarding `CC(=O)N1N=C(c2ccc(O)cc2)CC1c1ccc(F)cc1` (stereo not given), the IC50 in data set [1] is over 100 µg/mL.
For `COc1ccc(OC)c(/C=C/C(=O)c2cc3ccccc3oc2=O)c1`, in data set [1], the IC50 amounted to 2.7 µg/mL (≈ 8.03 µM) and the IC80 is 11.3 µg/mL (≈ 33.6 µM).

The values above are taken from ChEMBL document CHEMBL1208698, “Synthesis of novel alpha-pyranochalcones and pyrazoline derivatives as Plasmodium falciparum growth inhibitors” (Bioorg Med Chem Lett, 2010).
